Measurements taken from article PMC9609767, “Radiosynthesis and Preclinical Evaluation of an ^18F-Labeled Triazolopyridopyrazine-Based Inhibitor for Neuroimaging of the Phosphodiesterase 2A (PDE2A)” (Pharmaceuticals, 2022).
Where “and” joins values, the source holds several entries; their conditions need not be identical. Equal values may be shown once. Read-outs that look alike come from different tables or passages of the source.

How the values were obtained:
[1] = In vivo metabolism in CD-1 mice (radio-HPLC of plasma and brain); settings: mouse
Protocol: Two non-anesthetized female CD-1 mice (30 and 33 g, 90 days) were injected intravenously with [^18F]11 (28 MBq = 94 nmol/kg and 25 MBq = 78 nmol/kg). The animals were anesthetized by isoflurane inhalation at 28 min p.i. and blood was collected from the retro-orbital plexus, followed by cervical dislocation at 30 min p.i. Immediately afterwards, the brains were isolated, washed twice with isotonic saline and stored on ice. Plasma was obtained from the whole blood sample by centrifugation (8.000 rpm, 2 min, ambient temperature). All samples were weighed and the radioactivity was measured in a dose calibrator (ISOMED 2010 Dose Calibrator, NUVIA Instruments GmbH, Dresden, Germany). Afterwards, the brains were homogenized in 1 mL demineralized water on ice (Potter S, B. Braun Biotech, Melsungen, Germany).
Protein precipitation was performed by the addition of ice-cold ACN/H2O (9:1, v/v) in a ratio of 4:1 (v/v) of organic solvent to plasma or brain homogenate, respectively. The samples were vortexed for 3 min, equilibrated on ice for 3 min, and centrifuged for 10 min at 10,000 rpm and the supernatant collected. The precipitates were washed with 100 μL of the solvent mixture and subjected to the same procedure. The combined supernatants were concentrated at 70 °C under argon flow to a final volume of approximately 100 μL and analysed by analytical radio-HPLC with a gradient system (see radiochemistry general section). The peak corresponding to the radiotracer in the radio-chromatogram was identified by co-injecting the sample with the reference compound 11. To determine the percentage of activity in the supernatants compared to total activity, aliquots of each step as well as the precipitates were quantified by an automated gamma counter (1480 WIZARD, Perkin Elmer, Turku, Finland). For plasma and brain samples recoveries of ≥91% of total activity were obtained.

rat PDE2A = target: T1, rat PDE2A (Rattus norvegicus, UniProt Q01062); assay: In vitro autoradiography with rat brain cryosections; assay type: binding; settings: for Kd: read-out: apparent KD
T1 construct: Frozen sagittal 12 µm brain sections obtained from female SPRD and male Wistar-Han rats; from tissue; host or cells: rat brain cryosections (female SPRD and male Wistar-Han rats)
T1 sequence (Q01062 1-928): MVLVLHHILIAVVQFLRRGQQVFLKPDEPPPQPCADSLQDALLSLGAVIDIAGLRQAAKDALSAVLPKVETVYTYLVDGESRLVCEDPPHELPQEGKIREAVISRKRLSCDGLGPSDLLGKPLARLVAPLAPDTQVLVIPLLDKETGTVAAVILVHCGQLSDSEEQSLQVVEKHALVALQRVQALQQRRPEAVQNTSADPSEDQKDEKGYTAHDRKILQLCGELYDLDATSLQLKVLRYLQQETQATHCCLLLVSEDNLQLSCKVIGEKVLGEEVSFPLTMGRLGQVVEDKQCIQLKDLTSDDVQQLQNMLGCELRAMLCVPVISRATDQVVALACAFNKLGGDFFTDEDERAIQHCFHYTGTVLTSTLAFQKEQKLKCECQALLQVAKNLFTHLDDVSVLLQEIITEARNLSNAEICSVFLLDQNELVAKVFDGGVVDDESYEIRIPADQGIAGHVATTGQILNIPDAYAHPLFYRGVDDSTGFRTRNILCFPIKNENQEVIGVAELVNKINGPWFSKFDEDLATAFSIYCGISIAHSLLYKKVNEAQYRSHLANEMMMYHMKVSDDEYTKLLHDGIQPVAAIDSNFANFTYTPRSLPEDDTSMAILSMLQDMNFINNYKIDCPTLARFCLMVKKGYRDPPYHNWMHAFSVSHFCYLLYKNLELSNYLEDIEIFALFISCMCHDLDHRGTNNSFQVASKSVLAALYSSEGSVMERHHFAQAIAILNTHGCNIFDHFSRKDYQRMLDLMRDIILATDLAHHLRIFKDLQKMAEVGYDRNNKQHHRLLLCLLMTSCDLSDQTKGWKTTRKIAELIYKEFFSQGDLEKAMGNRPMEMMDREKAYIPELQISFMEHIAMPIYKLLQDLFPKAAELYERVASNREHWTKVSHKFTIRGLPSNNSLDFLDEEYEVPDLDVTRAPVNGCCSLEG
Protocol: Frozen sagittal 12 µm brain sections obtained from female SPRD and male Wistar-Han rats (10–12 weeks old) were thawed, dried in a stream of cold air, and pre-incubated for 15 min with incubation buffer (50 mM TRIS-HCl, pH 7.4; supplemented with 1 mM MgCl2, 1 mM CaCl2, 2 mM KCl, and 2 U/mL Adenosine deaminase) at ambient temperature. Afterwards, the buffer was decanted and the cryosections dried again in a stream of cold air before covering with the radioligand in incubation buffer (~0.1 MBq [^18F]11/mL; Am at the time of the incubation ~10 GBq/µmol) for incubation at ambient temperature for 90 min.
The incubation was terminated by pouring off the incubation solution and washing the slides twice with ice-cold buffer (50 mM TRIS-HCl, pH 7.4/4 °C) for 2 min and rinsing by dipping in ice-cold demineralised water. Immediately afterwards, the sections were dried in a stream of cold air and exposed along with appropriate radioactive standards (1 µL of serial dilutions of the radioligand in incubation buffer, pipetted on a microscopic glass slide and air dried) to an ^18F-sensitive image plate for 120 min. Finally, the imaging plate was scanned at the highest possible resolution (pixel size 12.6 µm × 12.6 µm) in a phosphor imager (HD-CR 35; Duerr NDT GmbH, Bietigheim Bissingen, Germany) and the digital image analysed with an image analysis program (Aida Image Analyzer v. 4.26; Elysia-raytest GmbH, Straubenhardt, Germany).
For the determination of the protein concentration, four dried 12 µm cryosections were scraped from the microscopic glass slides, transferred in an Eppendorf tube and solubilised with 200 µL of demineralised water. The protein concentration of this solution was determined by a commercial assay (Pierce™ BCA Protein Assay Kit, Thermo Fisher Scientific, Schwerte, Germany). The area of the cryosections was determined during the analysis of the digitized autoradiographic images, and the volume was calculated by multiplying the area with the thickness of the slices. Finally, the protein concentration of the tissue was calculated (37 mg protein/g wet weight).

[2] = logD by shake flask method (n-octanol/PBS); assay type: physicochemical; settings: n-octanol/phosphate-buffered saline, n = 4
Protocol: In order to estimate the lipophilicity of [^18F]11, the partition coefficient was determined by the shake flask method using n-octanol and phosphate-buffered saline as partition system. […] The chemical stability of the radiotracer was investigated by incubation in phosphate-buffered saline (PBS) and n-octanol at 30 °C.
The determination of stability and logD value has been performed according to the procedures described by Sadeghzadeh and Wenzel et al..

[3] = 30 min p.i., i.v., n = 2 (individual values)
[4] = caudate putamen, female SPRD rat
[5] = caudate putamen, male Wistar-Han rat

For `CCCC(O)c1ccc([18F])c(-c2nnc3c(C)nc4ccc(C5CC5)nc4n23)c1` (centres unmarked) [[^18F]11], the “fraction of non-metabolized radiotracer in brain” value [1, 3] was 42/50, the “fraction of non-metabolized radiotracer in plasma” value [1, 3] was “about 7/11” and the “radiometabolites in the brain (% of the activity)” value ([1]; 30 min post injection) was ~ 50%. For the same molecule, the Kd (rat PDE2A; caudate nucleus and putamen, homologous competition, overall value (SPRD and Wistar)) was ~0.2 nM and 0.24 nM, the “apparent Bmax” value (rat PDE2A; caudate nucleus and putamen, overall value (SPRD and Wistar)) was ~20 pmol/mg protein and 16 pmol/mg protein and the “apparent Bmax” value (rat PDE2A; [4]) was 14 pmol/mg protein. The Kd (rat PDE2A; [4]) was 0.38 nM, the “apparent Bmax” value (rat PDE2A; [5]) was 18 pmol/mg protein and the Kd (rat PDE2A; [5]) was 0.1 nM. For the same molecule, the caudate putamen-to-cerebellum ratio (rat PDE2A; in vitro autoradiography, equilibrium conditions) was “about 2” and the logD [2] was 1.79 ± 0.66.
